Laboratory results taken from ChEMBL document CHEMBL5214958, “Discovery of novel compounds as potent activators of Sirt3” (Bioorg Med Chem, 2022).

Key:
[1] = biological target: T1, NAD-dependent protein deacetylase sirtuin-3, mitochondrial (Homo sapiens, UniProt Q9NTG7); assay: Binding affinity to human Sirt3 (118 to 399 residues) assessed as dissociation constant using acetylated MnSOD peptide as substrate in presence of honokiol by microscale thermophoresis analysis
T1 sequence (Q9NTG7 whole entry): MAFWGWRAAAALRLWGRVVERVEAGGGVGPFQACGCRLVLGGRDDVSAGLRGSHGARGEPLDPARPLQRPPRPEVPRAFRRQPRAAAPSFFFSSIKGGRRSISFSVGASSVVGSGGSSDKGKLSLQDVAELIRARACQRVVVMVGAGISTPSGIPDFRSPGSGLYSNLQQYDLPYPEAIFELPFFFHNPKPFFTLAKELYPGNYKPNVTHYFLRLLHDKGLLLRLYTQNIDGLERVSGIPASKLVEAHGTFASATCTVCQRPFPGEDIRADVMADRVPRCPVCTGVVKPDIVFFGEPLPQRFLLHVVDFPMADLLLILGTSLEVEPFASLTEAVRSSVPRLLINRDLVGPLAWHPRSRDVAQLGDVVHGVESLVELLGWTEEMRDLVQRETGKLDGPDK

[2] = biological target: T1, NAD-dependent protein deacetylase sirtuin-3, mitochondrial; assay: Binding affinity to human Sirt3 (118 to 399 residues) assessed as dissociation constant using acetylated MnSOD peptide as substrate by microscale thermophoresis analysis
[3] = biological target: T2, NAD-dependent protein deacetylase sirtuin-3, mitochondrial (Homo sapiens) (UniProt Q9NTG7); assay: (§1) Modulation of human Sirt3 (118 to 399 residues) deacetylation activity under non-steady state assessed as substrate deacetylation at low enzyme concentration with [E]0/[NAD+]0 ratio of 0.3 at 10 uM incubated for 2 mins using MnSOD peptide as substrate in presence of NAD+ by HPLC-assay relative to control; conditions: filed as modulator
T2 sequence (whole entry): T1 sequence (Q9NTG7 whole entry)

[4] = biological target: T2, NAD-dependent protein deacetylase sirtuin-3, mitochondrial (Homo sapiens); assay: as §1, with “high” for “low”, “0.6” for “0.3”; conditions: filed as modulator
[5] = biological target: T1, NAD-dependent protein deacetylase sirtuin-3, mitochondrial; assay: Binding affinity to human Sirt3 (118 to 399 residues) assessed as dissociation constant using 625nM acetylated MnSOD peptide as substrate by microscale thermophoresis analysis
[6] = biological target: T1, NAD-dependent protein deacetylase sirtuin-3, mitochondrial; assay: Binding affinity to human Sirt3 (118 to 399 residues) assessed as dissociation constant of ternary complex using acetylated MnSOD peptide as substrate in presence of OAADPr by microscale thermophoresis analysis
[7] = biological target: T2, NAD-dependent protein deacetylase sirtuin-3, mitochondrial (Homo sapiens); assay: as §1, with “0.1” for “0.3”; conditions: filed as modulator
[8] = biological target: T1, NAD-dependent protein deacetylase sirtuin-3, mitochondrial; assay: Binding affinity to human Sirt3 (118 to 399 residues) assessed as dissociation constant (Koff) of ternary complex using acetylated MnSOD peptide as substrate in presence of OAADPr by short DNA nano levers based switchSENSE microfluid bio-chip analysis
[9] = biological target: T1, NAD-dependent protein deacetylase sirtuin-3, mitochondrial; assay: Binding affinity to human Sirt3 (118 to 399 residues) assessed as dissociation constant (Koff) by short DNA nano levers based switchSENSE microfluid bio-chip analysis
[10] = biological target: T1, NAD-dependent protein deacetylase sirtuin-3, mitochondrial; assay: Binding affinity to human Sirt3 (118 to 399 residues) assessed as dissociation constant of ternary complex using acetylated MnSOD peptide as substrate in presence of OAADPr by short DNA nano levers based switchSENSE microfluid bio-chip analysis
[11] = biological target: T1, NAD-dependent protein deacetylase sirtuin-3, mitochondrial; assay: Modulation of human Sirt3 (118 to 399 residues) deacetylation activity under non-steady state assessed as substrate deacetylation at low enzyme concentration with [E]0/[NAD+]0 ratio of 0.1 incubated for 5 mins using MnSOD peptide as substrate in presence of NAD+ by HPLC-assay relative to control

## NC(=O)c1ccc[n+]([C@@H]2C[C@H](COP(=O)(O)OP(=O)(O)OC[C@H]3O[C@@H](n4cnc5c(N)ncnc54)[C@H](O)[C@@H]3O)[C@@H](O)[C@H]2O)c1
[1]
  Kd: 6.6 µM
[2]
  Kd: 7.3 µM

## C=C(CC)C(=O)c1ccc(OCC(=O)N[C@H](Cc2ccc(Cl)cc2)C(=O)NCCCC)c(Cl)c1Cl
[3]
  Activity: 104%
[4]
  Activity: 107%

## C=CCc1ccc(O)c(-c2ccc(O)c(CC=C)c2)c1 [HONOKIOL]
[5]
  Kd: 2990 nM
[6]
  Kd: 290 nM
[3]
  Activity: 108%
[2]
  Kd: 0.97 µM

## Cc1ccc(-c2nc3n(n2)C(=O)CC(c2cccc4ccccc24)S3)cc1 (stereo not given)
[7]
  Activity: 114%
[4]
  Activity: 127%

## CCCCNC(=O)COc1ccc2c(c1)CCc1ccccc1C2NC(=O)CCCOc1cc([N+](=O)[O-])c(C(C)O)cc1OC (stereo not given)
[8]
  Kd: 0.162 s⁻¹
[9]
  Kd: 0.22 s⁻¹
[10]
  Kd: 12.6 µM
[11]
  EC50: < 5 µM

## CCCCNC(=O)[C@@H](Cc1ccc(Cl)cc1)NC(=O)CSC(=S)c1ccccc1
[3]
  Activity: 100%
